Common to all, as to type: in vivo
For test [1], the system named is Echinochloa crus-galli (ECHCG). Put plainly: Post-emergence biological efficacy, glasshouse pot test. The settings on record: 312 h, post-emergence, 1,000 g/ha, evaluated after 13 days (100=total damage; 0=no damage), read-out: Percentage damage caused to weed species, ECHCG. How it is done: (§1) Seeds of Alopecurus myosuroides (ALOMY), Setaria faberi (SETFA), Echinochloa crus-galli (ECHCG), Solanum nigrum (SOLNI), Amaranthus retoflexus (AMARE) and Ipomea hederaceae (IPOHE) were sown in standard soil in pots. After cultivation for 8 days under controlled conditions in a glasshouse (at 24/16° C., day/night; 14 hours light; 65% humidity), the plants were sprayed with an aqueous spray solution derived from the formulation of the technical active ingredient in acetone/water (50:50) solution containing 0.5% Tween 20 (polyoxyethelyene sorbitan monolaurate, CAS RN 9005-64-5) to give a final dose of 1000 or 250 g/ha of test compound.
(§2) The test plants were then grown on under controlled conditions in a glasshouse (at 24/16° C., day/night; 14 hours light; 65% humidity) and watered twice daily. After 13 days the test was evaluated (100=total damage to plant; 0=no damage to plant).

Test [2] has as its system Alopecurus myosuroides (ALOMY). The test is described as above. As to conditions: 312 h, post-emergence, 1,000 g/ha, evaluated after 13 days (100=total damage; 0=no damage), read-out: Percentage damage caused to weed species, ALOMY. How it is done:
as §1, §2

The test system of test [3] is Ipomea hederaceae (IPOHE). The description is as above. As to conditions: Ipomoea hederacea, 312 h; post-emergence, 1,000 g/ha, evaluated after 13 days (100=total damage; 0=no damage); read-out: Percentage damage caused to weed species, IPOHE. How it is done:
as §1, §2

The subject of test [4] is Setaria faberi (SETFA). The test is described as above. The settings on record: 312 h, post-emergence, 1,000 g/ha, evaluated after 13 days (100=total damage; 0=no damage), read-out: Percentage damage caused to weed species, SETFA. The procedure:
as §1, §2

Test [5] relates to Solanum nigrum (SOLNI). The test is described as above. As to conditions: 312 h, post-emergence, 1,000 g/ha, evaluated after 13 days (100=total damage; 0=no damage), read-out: Percentage damage caused to weed species, SOLNI. How it is done:
as §1, §2

In test [6] the test system is Amaranthus retoflexus (AMARE). Described as above. As to conditions: Amaranthus retroflexus, 312 h; post-emergence, 1,000 g/ha, evaluated after 13 days (100=total damage; 0=no damage); read-out: Percentage damage caused to weed species, AMARE. How it is done: as §1, §2
The test system of test [7] is Echinochloa crus-galli (ECHCG). In words: Pre-emergence biological efficacy, glasshouse pot test. The settings on record: 312 h, pre-emergence, 1,000 g/ha, evaluated after 13 days (100=total damage; 0=no damage), read-out: Percentage damage ECHCG. How it is done: as §1, with “one day” for “8 days”
(§3) The test plants were then grown under controlled conditions in the glasshouse (at 24/16° C., day/night; 14 hours light; 65% humidity) and watered twice daily. After 13 days the test was evaluated (100=total damage to plant; 0=no damage to plant).

The subject of test [8] is Alopecurus myosuroides (ALOMY). Described as above. The settings on record: 312 h, pre-emergence, 1,000 g/ha, evaluated after 13 days (100=total damage; 0=no damage), read-out: Percentage damage ALOMY. The procedure:
as §1, with “one day” for “8 days”
as §3

The test system of test [9] is Ipomea hederaceae (IPOHE). The description is as above. As to conditions: Ipomoea hederacea, 312 h; pre-emergence, 1,000 g/ha, evaluated after 13 days (100=total damage; 0=no damage); read-out: Percentage damage IPOHE. How it is done:
as §1, with “one day” for “8 days”
as §3

Test [10] has as its system Setaria faberi (SETFA). Described as above. The settings on record: 312 h, pre-emergence, 1,000 g/ha, evaluated after 13 days (100=total damage; 0=no damage), read-out: Percentage damage SETFA. How it is done:
as §1, with “one day” for “8 days”
as §3

For test [11], the system named is Solanum nigrum (SOLNI). Described as above. The settings on record: 312 h, pre-emergence, 1,000 g/ha, evaluated after 13 days (100=total damage; 0=no damage), read-out: Percentage damage SOLNI. How it is done: as §1, with “one day” for “8 days”
as §3

Test [12] concerns Amaranthus retoflexus (AMARE). Described as above. As to conditions: Amaranthus retroflexus, 312 h; pre-emergence, 1,000 g/ha, evaluated after 13 days (100=total damage; 0=no damage); read-out: Percentage damage AMARE. The procedure: as §1, with “one day” for “8 days”
as §3

SMILES strings stand for the structures.

`COC(=O)c1nc(C2CC2)nc(N[C@H](CO)[C@H](O)c2ccc([N+](=O)[O-])cc2)c1Cl` [4-275 (R,R), 5-Chloro-2-cyclopropyl-4-[(1R, 2R)-2-hydroxy-1-hydroxymethyl-2-(4-nitrophenyl)-ethylamino]-6-methoxycarbonyl-pyrimidine]: the pest or weed control at 1000 g/ha in test [1] was found to be 70%; in test [2] it was 30%; in test [3], 100%; in the test with Setaria faberi (SETFA) [4] it was 80%; in the test with Solanum nigrum (SOLNI) [5], 100%; in test [6] it was 100%. Further, the pest or weed control at 1000 g/ha is 60% in test [7]; 70% in test [8]; 100% in test [9]; 70% in the test with Setaria faberi (SETFA) [10]; 90% with Solanum nigrum (SOLNI) [11]; 100% in test [12].
As for `COC(=O)c1nc(C2CC2)nc(N[C@@H](CO)[C@@H](O)c2ccc([N+](=O)[O-])cc2)c1Cl` [4-275 (S,S), 5-Chloro-2-cyclopropyl-4-[(1S, 2S)-2-hydroxy-1-hydroxymethyl-2-(4-nitrophenyl)-ethylamino]-6-methoxycarbonyl-pyrimidine], the pest or weed control at 1000 g/ha in [1] amounted to 60%; in test [2] it was 40%; in [3], 70%; in the test with Setaria faberi (SETFA) [4] it was 80%; with Solanum nigrum (SOLNI) [5] it was 100%; in test [6] it was 100%. Further, the pest or weed control at 1000 g/ha in test [7] worked out at 30%; in test [8], 30%; in test [9] it was 100%; with Setaria faberi (SETFA) [10], 60%; in the test with Solanum nigrum (SOLNI) [11], 100%; in test [12], 100%.
`COC(=O)c1nc(C2CC2)nc(N[C@H](CO)CSCc2ccccc2)c1Cl` [4-276 (R), 5-Chloro-2-cyclopropyl-4-[(1R)-1-hydroxymethyl-2-phenylmethylthio-ethylamino]-6-methoxycarbonyl-pyrimidine]: the pest or weed control at 1000 g/ha in test [1] came to 30%; in test [2], 20%; in [3], 40%; with Setaria faberi (SETFA) [4] it was 40%; in the test on Solanum nigrum (SOLNI) [5], 80%; in test [6] it was 100%. In addition, the pest or weed control at 1000 g/ha came to 30% in test [7]; 20% in [8]; 80% in test [9]; 30% in the test on Setaria faberi (SETFA) [10]; 90% with Solanum nigrum (SOLNI) [11]; 100% in test [12].
Regarding `COC(=O)c1nc(C2CC2)nc(N[C@H](c2ccccc2)[C@@H](O)c2ccccc2)c1Cl` [4-280 (1R,2S), 5-Chloro-2-cyclopropyl-4-[(1R, 2S)-1,2-diphenyl-2-hydroxy-ethyl-amino]-6-methoxy-carbonylpyrimidine], the pest or weed control at 1000 g/ha in test [1] was found to be 50%; in test [2] it was 40%; in test [3], 70%; with Setaria faberi (SETFA) [4] it was 70%; with Solanum nigrum (SOLNI) [5], 80%; in test [6], 100%. In addition, the pest or weed control at 1000 g/ha in test [7] amounted to 20%; in test [8], 10%; in test [9], 90%; in the test with Setaria faberi (SETFA) [10], 10%; in the test with Solanum nigrum (SOLNI) [11] it was 80%; in test [12], 60%.
`COC(=O)c1nc(C2CC2)nc(N[C@@H](c2ccccc2)[C@H](O)c2ccccc2)c1Cl` [4-280 (1S,2R), 5-Chloro-2-cyclopropyl-4-[(1S, 2R)-1,2-diphenyl-2-hydroxy-ethylamino]-6-methoxycarbonyl-pyrimidine]: the pest or weed control at 1000 g/ha amounted to 60% in test [1]; 40% in [2]; 100% in [3]; 80% in the test with Setaria faberi (SETFA) [4]; 100% in the test on Solanum nigrum (SOLNI) [5]; 100% in test [6]. The pest or weed control at 1000 g/ha is 40% in test [7]; 20% in test [8]; 80% in test [9]; 30% in the test on Setaria faberi (SETFA) [10]; 90% in the test on Solanum nigrum (SOLNI) [11]; 100% in test [12].
In the case of `COC(=O)c1nc(C2CC2)nc(N[C@@H](CC2CCCCC2)C(=O)OC)c1Cl` [4-282 (S), 5-Chloro-4-[(1S)-2-cyclohexyl-1-methoxycarbonyl-ethylamino]-2-cyclopropyl-6-methoxycarbonyl-pyrimidine], the pest or weed control at 1000 g/ha in test [1] was determined as 20%; in [2], 20%; in [3], 80%; in the test with Setaria faberi (SETFA) [4], 60%; with Solanum nigrum (SOLNI) [5], 80%; in test [6], 100%. In addition, the pest or weed control at 1000 g/ha in [7] stood at 30%; in test [8], 10%; in test [9], 80%; in the test on Setaria faberi (SETFA) [10] it was 20%; in the test on Solanum nigrum (SOLNI) [11] it was 90%; in test [12], 90%.
For the compound `COC(=O)c1nc(C2CC2)nc(N[C@@H](Cc2ccc(Cl)cc2)C(=O)OC)c1Cl` [4-285 (S), 5-Chloro-4-[(1S)-2-(4-chlorophenyl)-1-methoxycarbonyl-ethylamino]-2-cyclopropyl-6-methoxycarbonyl-pyrimidine], the pest or weed control at 1000 g/ha was 20% in [1]; 20% in [2]; 90% in test [3]; 40% in the test on Setaria faberi (SETFA) [4]; 90% in the test with Solanum nigrum (SOLNI) [5]; 100% in test [6]. In addition, the pest or weed control at 1000 g/ha turned out to be 30% in [7]; 20% in test [8]; 70% in [9]; 20% in the test with Setaria faberi (SETFA) [10]; 90% in the test with Solanum nigrum (SOLNI) [11]; 90% in test [12].

Source of the values: US20110086759A1, “CHEMICAL COMPOUNDS” (SYNGENTA CROP PROTECTION, INC., priority 2007, published 2011).
